The target of experiment [1] is T1, Sterol O-acyltransferase 1 (Rattus norvegicus, UniProt O70536).
T1 sequence (O70536 whole entry): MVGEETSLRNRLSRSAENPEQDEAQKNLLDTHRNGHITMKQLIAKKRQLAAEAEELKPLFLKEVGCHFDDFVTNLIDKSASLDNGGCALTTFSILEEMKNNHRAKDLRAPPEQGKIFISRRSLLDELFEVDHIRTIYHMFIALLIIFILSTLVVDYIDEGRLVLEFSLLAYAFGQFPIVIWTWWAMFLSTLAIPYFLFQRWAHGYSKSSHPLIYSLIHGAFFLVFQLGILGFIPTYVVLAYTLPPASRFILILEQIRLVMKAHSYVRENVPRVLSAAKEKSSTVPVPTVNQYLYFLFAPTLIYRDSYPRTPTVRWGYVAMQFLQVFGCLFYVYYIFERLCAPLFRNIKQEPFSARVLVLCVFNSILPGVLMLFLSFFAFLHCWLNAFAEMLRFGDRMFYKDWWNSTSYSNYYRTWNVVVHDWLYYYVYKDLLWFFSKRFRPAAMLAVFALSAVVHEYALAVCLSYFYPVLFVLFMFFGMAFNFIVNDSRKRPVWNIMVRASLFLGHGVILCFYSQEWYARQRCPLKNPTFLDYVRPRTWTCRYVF
Put plainly: In vitro inhibitory activity against acyl coenzyme A:cholesterol acyltransferase 1 in microsomes of rat liver.

Experiment [2] has as its system Rattus norvegicus. Put plainly: Acute in vivo activity measured by total plasma cholesterol concentration levels (TC) at 30 mg/kg dose. The experiment is classed as functional.
For experiment [3], the target named is T2, Sterol O-acyltransferase 1 (Rattus norvegicus) (UniProt O70536).
T2 sequence (whole entry): T1 sequence (O70536 whole entry)
Briefly: Chronic in vivo activity was measured by the concentration of high density lipoproteins (HDL) in cholesterol fed rats. The format is functional, organism-based.

Experiment [4] has as its target T2, Sterol O-acyltransferase 1 (Rattus norvegicus). Briefly: Acute in vivo activity was measured by the total plasma cholesterol concentration levels(TC) at dose 3 mg/kg. The experiment is classed as functional, organism-based. Also noted: dose 3 mg/kg.
Experiment [5] shares this target. Put plainly: Chronic in vivo activity was measured by the total cholesterol concentration levels in cholesterol fed rats. The experiment is classed as functional, organism-based.
For experiment [6] the target is unchanged. Briefly: Acute in vivo activity was measured by the total plasma cholesterol concentration levels(TC) at dose 50 mg/kg. The experiment is classed as functional, organism-based. Set-up: dose 50 mg/kg.

Several values for one entry are separate records, joined by “and”; a condition that tells them apart may be missing. Equal entries are not always repeated. A value given as a limit tells only on which side of the number the result lay.

A word on the IC50: it is the concentration that inhibits the measured activity by half. Lower therefore signals greater potency.

`COc1cc(C(C)C)c(OC(=O)NS(=O)(=O)Oc2c(C(C)C)cccc2C(C)C)c(C(C)C)c1`: in experiment [1], the IC50 was above 25 µM. The “Delta TC” value in experiment [2] was -56%; in experiment [4], 1%; in experiment [5], -12%. The compound further registered a Delta HDL in experiment [3] of 8%.
In turn, `CC(C)(C)c1cccc(C(C)(C)C)c1OC(=O)NS(=O)(=O)Nc1ccccc1` showed an IC50 in experiment [1] of 19 µM. In experiment [6], the Delta TC is -26%.
`CC(C)c1cc(C(C)C)c(NC(=O)NS(=O)(=O)Oc2c(C(C)C)cccc2C(C)C)c(C(C)C)c1` came in with an IC50 in experiment [1] of 23 µM. The “Delta TC” value in experiment [2] is -68%; in experiment [4] it was -51%; in experiment [5] it was -59%. For the same compound, in experiment [3], the Delta HDL worked out at 18%.
For `CCCCCCCCN(CCCCCCCC)S(=O)(=O)NC(=O)Nc1c(C(C)C)cccc1C(C)C`, in that order: 1.9 µM, -53%, -38%, -56% and 150%.
For `CC(C)c1cccc(C(C)C)c1OS(=O)(=O)NC(=O)Oc1c(C(C)C)c(C(C)C)c(F)c(C(C)C)c1C(C)C` the same measures were 13 µM, -71%, -47%, -74% and 208%.
For `CC(C)c1cc(C(C)C)c(OC(=O)NS(=O)(=O)Oc2c(C(C)C)cc(C(C)C)cc2C(C)C)c(C(C)C)c1` the same measures were 22 µM, -65%, -32%, -62% and 129%.
`CC(C)c1cc(C(C)(C)C)cc(C(C)C)c1OC(=O)NS(=O)(=O)Oc1c(C(C)C)cccc1C(C)C` had an IC50 in experiment [1] of 8.8 µM. Further, the “Delta TC” value is -58% in experiment [2], -55% in experiment [4] and -72% in experiment [5]. In experiment [3], the Delta HDL stood at 177%.
For `CC(C)c1cccc(C(C)C)c1NC(=O)NS(=O)(=O)NC(c1ccccc1)c1ccccc1`, in experiment [1], the midpoint of inhibition, the IC50, lay at 4.1 µM. For the same compound, the Delta TC in experiment [6] is -14%.
Regarding `CC(C)c1cccc(C(C)C)c1NC(=O)NS(=O)(=O)NC1c2ccccc2-c2ccccc21`, inhibition in experiment [1] was half-maximal at 25 µM (IC50). The Delta TC in experiment [6] was -4%.
`CC(C)c1cc(C(C)C)c(OS(=O)(=O)NC(=O)Oc2c(C(C)C)cccc2C(C)C)c(C(C)C)c1`: inhibition in experiment [1] was half-maximal at 29 µM (IC50). For the same compound, the “Delta TC” value was -67% in experiment [2], -63% in experiment [4] and -61% in experiment [5]. In experiment [3], this compound had a Delta HDL of 295%.
For `CC(C)(C)c1cccc(C(C)(C)C)c1OC(=O)NS(=O)(=O)NCC(c1ccccc1)c1ccccc1`, the IC50 in experiment [1] stood at 21.8 µM. Besides, in experiment [6], the Delta TC is -32%.
`CC(C)c1ccc(C(C)C)c(NC(=O)NS(=O)(=O)Oc2c(C(C)C)cccc2C(C)C)c1` gave a concentration for half-maximal inhibition (IC50) in experiment [1] of 8.7 µM. The figures for the “Delta TC” value in experiment [2], in experiment [4] and in experiment [5] were -43%, -1% and -43%, respectively. This compound also yielded a Delta HDL in experiment [3] of 5%.
`CCCCCCCCCCCCOS(=O)(=O)NC(=O)Oc1c(C(C)C)cccc1C(C)C` yielded an IC50 in experiment [1] of 13 µM. Besides, the “Delta TC” value is -68% in experiment [2], -63% in experiment [4] and -56% in experiment [5]. The compound also registered a Delta HDL in experiment [3] of 31%.
`CC(C)c1cccc(C(C)C)c1OC(=O)NS(=O)(=O)NCC(c1ccccc1)c1ccccc1` returned an IC50 in experiment [1] of 49 µM. Besides, the Delta TC in experiment [6] was -29%.
For `CCCN(CCC)S(=O)(=O)NC(=O)Nc1c(C(C)C)cccc1C(C)C`, the IC50 in experiment [1] turned out to be 1.1 µM. The entries for the “Delta TC” value in experiment [2], in experiment [4] and in experiment [5] were -60%, -51% and -53%, respectively. Moreover, the Delta HDL in experiment [3] came to 78%.
`CC(C)c1cccc(C(C)C)c1OS(=O)(=O)NC(=O)Oc1c(C(C)(C)C)cccc1C(C)(C)C` had an IC50 in experiment [1] of 12 µM. Further, the “Delta TC” value is -70% in experiment [2], -50% in experiment [4] and -64% in experiment [5]. The Delta HDL in experiment [3] amounted to 25%.
Consider `CC(C)c1cccc(C(C)C)c1NC(=O)NS(=O)(=O)N(Cc1ccccc1)Cc1ccccc1`, for which the half-maximal inhibitory concentration (IC50) in experiment [1] was 2.2 µM. Besides, the “Delta TC” value in experiment [2] is -36%; in experiment [4], -18%; in experiment [5], -28%. For the same compound, in experiment [3], the Delta HDL came to 183%.
As for `Cc1cc(C(C)(C)C)c(OC(=O)NS(=O)(=O)Nc2ccccc2)c(C(C)(C)C)c1`, the midpoint of inhibition in experiment [1], the IC50, lay at 23.4 µM. Besides, in experiment [6], the Delta TC is -33%.
With `CCCCN(CCCC)S(=O)(=O)NC(=O)Nc1c(C(C)C)cccc1C(C)C`, the Delta TC in experiment [6] was -66%; in experiment [4], -64% and -52%; in experiment [5], -52% and -40%.
For `CC(C)c1cc(C(C)C)c(OC(=O)NS(=O)(=O)Oc2c(C(C)C)cccc2C(C)C)c(C(C)C)c1`, the IC50 in experiment [1] worked out at 14 µM. For the same compound, the “Delta TC” value is -79% in experiment [2], -57% in experiment [4] and -74% in experiment [5]. Moreover, the Delta HDL in experiment [3] is 153%.
As to `CC(C)c1cccc(C(C)C)c1NC(=O)NS(=O)(=O)N(C(C)C)C(C)(C)C`, in experiment [1], inhibition was half-maximal at 0.14 µM (IC50). Besides, the “Delta TC” value in experiment [2] was -17%; in experiment [4] it was -55%; in experiment [5] it was -48%. The compound further came in with a Delta HDL in experiment [3] of 43%.
As to `CC(C)c1cccc(C(C)C)c1OC(=O)NS(=O)(=O)NC(c1ccccc1)c1ccccc1`, the midpoint of inhibition in experiment [1], the IC50, lay at 10.6 µM. In addition, in experiment [6], the Delta TC was found to be 46%.
Compound `COc1cc(OC)c(OS(=O)(=O)NC(=O)Oc2c(C(C)C)cccc2C(C)C)c(OC)c1` returned an IC50 in experiment [1] above 50 µM. The “Delta TC” value is -61% in experiment [2], -37% in experiment [4] and -37% in experiment [5]. Moreover, in experiment [3], the Delta HDL was found to be 62%.
On to `CC(C)c1cccc(C(C)C)c1OC(=O)NS(=O)(=O)Nc1nc2ccccc2[nH]1`, for which the IC50 in experiment [1] was 52 µM. Moreover, the Delta TC in experiment [6] came out at 8%.
For `CC(C)c1cccc(C(C)C)c1NC(=O)NS(=O)(=O)NCC(c1ccccc1)c1ccccc1` the same measures were 5.9 µM and -20%.
Consider `CCCCCCCCCCCCOS(=O)(=O)NC(=O)Oc1c(C(C)(C)C)cc(C)cc1C(C)(C)C`, for which the concentration for half-maximal inhibition (IC50) in experiment [1] was 52 µM. The “Delta TC” value is -65% in experiment [2], -41% in experiment [4] and -33% in experiment [5]. In experiment [3], this compound had a Delta HDL of 23%.
For `CC(C)c1cc(O)cc(C(C)C)c1OC(=O)NS(=O)(=O)Oc1c(C(C)C)cccc1C(C)C` the same measures were above 50 µM, -55%, -5%, -25% and 95%.
Take `CC(C)(C)c1cccc(C(C)(C)C)c1OC(=O)NS(=O)(=O)N(Cc1ccccc1)Cc1ccccc1`: it took 11 µM to reach half-maximal inhibition in experiment [1] (IC50). Further, the Delta TC in experiment [6] is -3%.
In turn, `COc1cccc(OC)c1OS(=O)(=O)NC(=O)Oc1c(C(C)C)cccc1C(C)C` gave an IC50 in experiment [1] above 50 µM. For the same compound, the “Delta TC” value is -70% in experiment [2], -63% in experiment [4] and -62% in experiment [5]. The Delta HDL in experiment [3] was 208%.
In the case of `Cc1cc(C(C)(C)C)c(OC(=O)NS(=O)(=O)Oc2c(C(C)C)cccc2C(C)C)c(C(C)(C)C)c1`, 7.7 µM corresponded to half-maximal inhibition in experiment [1] (IC50). Moreover, the “Delta TC” value was -72% in experiment [2], -52% in experiment [4] and -66% in experiment [5]. In experiment [3], this compound gave a Delta HDL of 205%.

Values taken from ChEMBL document CHEMBL1129522, “Inhibitors of acyl-CoA:cholesterol O-acyltransferase. 17. Structure-activity relationships of several series of compounds derived from N-chlorosulfonyl isocyanate” (J Med Chem, 1996).
